Patent US20040106148A1, “Polypeptides” (priority 2000, published 2004)

Tests used:
[1] = target: T1, human TAPP1 C-terminal PH domain (CT-PH TAPP1, residues 95 to 404), GST fusion (Homo sapiens, UniProt Q9HB21, T320A); assay: Surface plasmon resonance (BIACore), GST fusion binding to phosphoinositide in supported lipid monolayer; conditions: supported phosphatidylcholine monolayers, 1:1 binding model, read-out: Apparent Kd
T1 construct: made in house; host or cells: human embryonic kidney 293 cells (pEBG-2T)
Text: Cloning of PH domains and preparation of expression constructs. All the human and mouse EST's were obtained from the I.M.A.G.E. Consortium and sequenced. The plant EST (accession number T04439) encoding a full length clone of AtPH1 was obtained from the Arabidopsis Biological Research. Centre (Ohio University). The sequence of each EST was verified and the full length PH domain of each EST was amplified by PCR using the Hi-fidelity PCR system with primers designed to incorporate a Kozak site, an initiating ATG codon followed by a myc epitope tag and a stop codon after the PH domain. […]
Kinetic analyses of the interactions between the GST PH domain fusions and the polyphosphoinositides were made using surface plasmon resonance based procedures as described previously, with the following modifications. […] Data were analysed using the bimolecular interaction model and the global fitting feature of the BIAevaluation 3 software for several sensorgrams at different protein concentrations. […] The relative binding affinities of each protein relative to the binding of full length GST-TAPP1 to PtdIns(3,4)P2 were also calculated.
We studied the specificity and affinity of interaction of the PH domains for phosphoinositide lipids using either a “protein-lipid overlay” assay (FIG. 2) or the more quantitative surface plasmon resonance based approach (Table 2). […]

[2] = target: human TAPP1 C-terminal PH domain (residues 95 to 404), GST fusion (Homo sapiens, UniProt Q9HB21); assay: Protein-lipid overlay; assay type: binding; conditions: protein-lipid overlay (FIG. 2)
Protocol: (§1) FIG. 2. Phosphoinositide binding properties of the novel PH domains. The ability of the indicated GST fusion proteins to bind a variety of phosphoinositides was analysed using a protein-lipid overlay. Serial dilutions of the indicated phosphoinositides (100 pmol, 50 pmol, 25 pmol, 12.5 pmol, 6.3 pmol, 3.1 pmol and 1.6 pmol) were spotted onto a nitrocellulose membranes which were then incubated with the purified GST fusion proteins. The membranes were washed and the GST-fusion proteins bound to the membrane by virtue of their interaction with lipid were detected using a GST antibody. A representative of at least 3 separate experiments carried out is shown.
(§2) FIG. 4. Comparison of the phosphoinositide binding properties of the N-terminal and C-terminal PH domains of TAPP1 and TAPP2. The ability of wild type and mutant forms of full length (FL) and isolated N-terminal (NT) and C-terminal (CT) PH domains of TAPP1 and TAPP2 GST-fusion proteins to interact with phosphoinositides were analysed using a protein-lipid overlay. Serial dilutions of the indicated phosphoinositides (100 pmol, 50 pmol, 25 pmol, 12.5 pmol, 6.3 pmol, 3.1 pmol and 1.6 pmol) were spotted onto a nitrocellulose membrane which was then incubated with the indicated purified GST fusion proteins. The membranes were washed and the GST-fusion proteins bound to the membrane by virtue of their interactions with lipid were detected using a GST antibody. A representative experiment of three is shown. The isolated N-terminal PH domain of human TAPP1 comprises residues 1 to 147, the isolated C-terminal PH domain of human TAPP1 comprises residues 95 to 404, the isolated N-terminal PH domain of mouse TAPP2 comprises residues 1 to 131 and the isolated C-terminal PH of mouse TAPP2 comprises residues 174 to 425.
(§3) Protein-Lipid overlay. To assess the phosphoinositide binding properties of each PH domain, a protein-lipid overlay assay was performed using the GST fusion proteins as described previously. […] The membrane was blocked in 3% (by mass) fatty acid-free BSA in TBST (50 mM Tris/HCl pH 7.5, 150 mM NaCl and 0.1% Tween-20 (by vol) for lh. The membrane was then incubated overnight at 4° C. with gentle agitation in the same solution containing 0.2 μg/ml of the indicated GST fusion protein. The membranes were washed 6 times over 30 min in TBST and then incubated for 1 h with 1/1000 dilution of anti-GST monoclonal antibody (Sigma). The membranes were washed as before, then incubated for 1 h with 1/5000 dilution of anti-mouse-HRP conjugate (Pierce). Finally, the membranes were washed 12 times over 1 h in TBST and the GST-fusion protein bound to the membrane by virtue of its interaction with phospholipid was detected by enhanced chemiluminescence.

[3] = target: T2, mouse TAPP2 C-terminal PH domain (residues 174 to 425), GST fusion (Mus musculus, UniProt Q9ERS5); assay: Protein-lipid overlay; assay type: binding; conditions: protein-lipid overlay (FIG. 2)
T2 construct: made in house; host or cells: human embryonic kidney 293 cells (pEBG-2T)
Protocol: as §1, §2, §3

Chain of human TAPP1 C-terminal PH domain (residues 95 to 404), GST fusion (Q9HB21 95-404): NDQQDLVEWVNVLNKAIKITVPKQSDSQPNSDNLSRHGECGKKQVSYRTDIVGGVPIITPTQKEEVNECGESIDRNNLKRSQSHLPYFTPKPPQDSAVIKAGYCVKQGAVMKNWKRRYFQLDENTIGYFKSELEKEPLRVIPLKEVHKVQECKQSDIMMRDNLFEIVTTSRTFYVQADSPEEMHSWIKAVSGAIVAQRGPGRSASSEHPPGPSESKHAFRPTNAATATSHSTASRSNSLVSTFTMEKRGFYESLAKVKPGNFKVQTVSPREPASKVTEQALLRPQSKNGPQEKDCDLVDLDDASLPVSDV
T1 sequence (Q9HB21 95-404 T320A): as the sequence (Q9HB21 95-404) above, with T226A counted along it
T2 sequence (Q9ERS5 174-425): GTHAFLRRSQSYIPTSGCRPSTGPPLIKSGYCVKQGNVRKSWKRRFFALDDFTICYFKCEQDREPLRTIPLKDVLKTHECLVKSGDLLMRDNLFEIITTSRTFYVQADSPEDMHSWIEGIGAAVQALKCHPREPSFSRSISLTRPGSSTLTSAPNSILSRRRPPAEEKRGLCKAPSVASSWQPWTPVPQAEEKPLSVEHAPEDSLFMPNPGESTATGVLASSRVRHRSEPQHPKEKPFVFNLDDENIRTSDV

Structure (SMILES): CCCCCCCCCCCCCCCC(=O)OC[C@H](COP(=O)(O)O[C@H]1[C@H](O)[C@@H](O)[C@H](OP(=O)(O)O)[C@@H](OP(=O)(O)O)[C@H]1O)OC(=O)CCCCCCCCCCCCCCC [PtdIns(3,4)P2]
- Kd [1]: 27 nM
- phosphoinositide binding [2]: interacted
- phosphoinositide binding [3]: interacted
